These results are taken from ChEMBL document CHEMBL3124777, “Synthesis and biological evaluation of thiazoline derivatives as new antimicrobial and anticancer agents” (Eur J Med Chem, 2014).

The IC50 is the concentration at which inhibition is half-maximal. Lower therefore signals higher potency. One may read the MIC as the least concentration at which growth counts as inhibited. A high value points to a need for much substance.

Values after ≈ are worked out from the molar mass of the structure shown.

One assay deals with NIH3T3. Put plainly: Cytotoxicity against mouse NIH/3T3 cells after 24 hrs by MTT assay. The following applies: NIH3T3, 24 h. The class given is cell-based. In general terms: Tetrazolium assays rely on reduction of a dye to a coloured formazan, in cell work by metabolically active cells.
The subject of the next assay is Candida albicans. Put plainly: Antimicrobial activity against Candida albicans ATCC 22019 after 18 to 24 hrs by microbroth dilution method. The class given is functional. Background: Dilution methods test growth across graded concentrations, often in twofold steps.
A further assay concerns Fusarium culmorum. The experiment in a line: Antimicrobial activity against wild type Fusarium culmorum after 48 to 72 hrs by microbroth dilution method. The class given is functional.
A further assay concerns Fusarium verticillioides. Put plainly: Antimicrobial activity against Fusarium moniliforme NRRL 1866 after 48 to 72 hrs by microbroth dilution method. The class given is functional.
The test system of a further assay is Fusarium solani. Put plainly: Antimicrobial activity against Fusarium solani NRRL 13414 after 48 to 72 hrs by microbroth dilution method. The class given is functional.
The next assay concerns Aspergillus ochraceus. The experiment in a line: Antimicrobial activity against Aspergillus ochraceus NRRL 3174 after 48 to 72 hrs by microbroth dilution method. The class given is functional.
The next assay has as its system Trichoderma harzianum. Put plainly: Antimicrobial activity against Trichoderma harzianum NRRL 20565 after 48 to 72 hrs by microbroth dilution method. The class given is functional.
For another assay, the system named is Penicillium chrysogenum. The experiment in a line: Antimicrobial activity against Penicillium chrysogenum NRRL 1951 after 48 to 72 hrs by microbroth dilution method. The class given is functional.
In another assay the test system is Aspergillus parasiticus. Put plainly: Antimicrobial activity against Aspergillus parasiticus NRRL 465 after 48 to 72 hrs by microbroth dilution method. The class given is functional.
The next assay concerns Bacillus subtilis. The experiment in a line: Antimicrobial activity against Bacillus subtilis NRS-744 after 18 to 24 hrs by microbroth dilution method. The class given is functional.
A further assay deals with Micrococcus luteus. The experiment in a line: Antimicrobial activity against Micrococcus luteus NRLL B-4375 after 18 to 24 hrs by microbroth dilution method. The class given is functional.
The next assay relates to Pseudomonas aeruginosa. The experiment in a line: Antimicrobial activity against Pseudomonas aeruginosa […] after 18 to 24 hrs by microbroth dilution method. The class given is functional.
The subject of the next assay is Escherichia coli. The experiment in a line: Antimicrobial activity against Escherichia coli ATCC 25922 after 18 to 24 hrs by microbroth dilution method. The class given is functional.
The test system of a further assay is Listeria monocytogenes. Put plainly: Antimicrobial activity against Listeria monocytogenes ATCC 7644 after 18 to 24 hrs by microbroth dilution method. The class given is functional.
The next assay relates to Staphylococcus aureus. Put plainly: Antimicrobial activity against Staphylococcus aureus NRRL B-767 after 18 to 24 hrs by microbroth dilution method. The class given is functional.

As for `N#Cc1ccc(-c2cs/c(=N/NC(=O)CSc3ncccn3)n2-c2ccccc2)cc1`, the IC50 in the assay on NIH3T3 was less than 3.9 µg/mL. The MIC with Candida albicans, in the assay on Fusarium culmorum, with Fusarium verticillioides, with Fusarium solani, against Aspergillus ochraceus and against Trichoderma harzianum was 250 µg/mL (≈ 562 µM) in each case. The MIC in the assay on Penicillium chrysogenum was 250 µg/mL (≈ 562 µM); in the assay with Aspergillus parasiticus it was 250 µg/mL (≈ 562 µM); with Bacillus subtilis, 250 µg/mL (≈ 562 µM); in the assay with Micrococcus luteus, 250 µg/mL (≈ 562 µM); in the assay on Pseudomonas aeruginosa it was 125 µg/mL (≈ 281 µM); in the assay with Escherichia coli, 250 µg/mL (≈ 562 µM). Further, the MIC with Listeria monocytogenes and against Staphylococcus aureus was 250 µg/mL (≈ 562 µM) throughout.

For `COc1ccc(-c2cs/c(=N/NC(=O)CSc3nncn3C)n2-c2ccccc2)cc1`, the IC50 in the assay on NIH3T3 came out at 167 µg/mL (≈ 368 µM). The MIC against Candida albicans, with Fusarium culmorum, with Fusarium verticillioides, with Fusarium solani, in the assay with Aspergillus ochraceus and against Trichoderma harzianum was 250 µg/mL (≈ 552 µM) each time. In addition, the MIC against Penicillium chrysogenum, against Aspergillus parasiticus, in the assay on Bacillus subtilis, with Micrococcus luteus, with Pseudomonas aeruginosa and against Escherichia coli was 250 µg/mL (≈ 552 µM) each time. Further, the MIC against Listeria monocytogenes and with Staphylococcus aureus was 250 µg/mL (≈ 552 µM) throughout.

Consider `Cn1nnnc1SCC(=O)N/N=c1/scc(-c2ccc(Cl)cc2)n1-c1ccccc1`, for which, in the assay on NIH3T3, the IC50 came out at 40 µg/mL (≈ 87.3 µM). In addition, the MIC against Candida albicans, in the assay on Fusarium culmorum, against Fusarium verticillioides, with Fusarium solani, in the assay with Aspergillus ochraceus and in the assay with Trichoderma harzianum was 250 µg/mL (≈ 546 µM) in each case. Also, the minimum inhibitory concentration (MIC) against Penicillium chrysogenum, against Aspergillus parasiticus, against Bacillus subtilis, in the assay with Micrococcus luteus, against Pseudomonas aeruginosa and in the assay with Escherichia coli was 250 µg/mL (≈ 546 µM) throughout. Moreover, the MIC in the assay on Listeria monocytogenes came to 250 µg/mL (≈ 546 µM); against Staphylococcus aureus, 500 µg/mL (≈ 1090 µM).

`O=C(CSc1ncccn1)N/N=c1/scc(-c2ccc([N+](=O)[O-])cc2)n1-c1ccccc1` came in with an IC50 in the assay with NIH3T3 of 193 µg/mL (≈ 416 µM). The MIC in the assay with Candida albicans, in the assay on Fusarium culmorum, in the assay on Fusarium verticillioides, against Fusarium solani, in the assay with Aspergillus ochraceus and with Trichoderma harzianum was 250 µg/mL (≈ 538 µM) in each case. Further, the MIC with Penicillium chrysogenum, with Aspergillus parasiticus, in the assay on Bacillus subtilis, in the assay with Micrococcus luteus, against Pseudomonas aeruginosa and with Escherichia coli was 250 µg/mL (≈ 538 µM) throughout. Further, the MIC in the assay with Listeria monocytogenes and in the assay with Staphylococcus aureus was 250 µg/mL (≈ 538 µM) in each case.

Regarding `Cc1nnc(SCC(=O)N/N=c2/scc(-c3ccc(Br)cc3)n2-c2ccccc2)s1`, the IC50 in the assay with NIH3T3 turned out to be 55 µg/mL (≈ 106 µM). The MIC in the assay with Candida albicans turned out to be 250 µg/mL (≈ 482 µM); in the assay on Fusarium culmorum it was 250 µg/mL (≈ 482 µM); against Fusarium verticillioides, 250 µg/mL (≈ 482 µM); against Fusarium solani it was 250 µg/mL (≈ 482 µM); against Aspergillus ochraceus, 250 µg/mL (≈ 482 µM); against Trichoderma harzianum it was 125 µg/mL (≈ 241 µM). Besides, the MIC with Penicillium chrysogenum turned out to be 250 µg/mL (≈ 482 µM); against Aspergillus parasiticus, 250 µg/mL (≈ 482 µM); against Bacillus subtilis it was 500 µg/mL (≈ 964 µM); against Micrococcus luteus, 250 µg/mL (≈ 482 µM); against Pseudomonas aeruginosa it was 250 µg/mL (≈ 482 µM); in the assay with Escherichia coli, 250 µg/mL (≈ 482 µM). Also, the MIC in the assay with Listeria monocytogenes is 250 µg/mL (≈ 482 µM); in the assay on Staphylococcus aureus it was 500 µg/mL (≈ 964 µM).

For `Cn1cnnc1SCC(=O)N/N=c1/scc(-c2ccc(Cl)cc2)n1-c1ccccc1`, the IC50 in the assay with NIH3T3 is 51.7 µg/mL (≈ 113 µM). Further, the MIC with Candida albicans was 250 µg/mL (≈ 547 µM); in the assay with Fusarium culmorum, 250 µg/mL (≈ 547 µM); in the assay on Fusarium verticillioides, 250 µg/mL (≈ 547 µM); against Fusarium solani, 250 µg/mL (≈ 547 µM); against Aspergillus ochraceus, 250 µg/mL (≈ 547 µM); with Trichoderma harzianum, 125 µg/mL (≈ 274 µM). The MIC turned out to be 250 µg/mL (≈ 547 µM) with Penicillium chrysogenum; 250 µg/mL (≈ 547 µM) against Aspergillus parasiticus; 125 µg/mL (≈ 274 µM) against Bacillus subtilis; 125 µg/mL (≈ 274 µM) against Micrococcus luteus; 250 µg/mL (≈ 547 µM) against Pseudomonas aeruginosa; 125 µg/mL (≈ 274 µM) with Escherichia coli. The MIC against Listeria monocytogenes turned out to be 250 µg/mL (≈ 547 µM); against Staphylococcus aureus, 125 µg/mL (≈ 274 µM).

`O=C(CSc1ncccn1)N/N=c1/scc(-c2ccccc2)n1-c1ccccc1` showed an IC50 in the assay with NIH3T3 of 107 µg/mL (≈ 254 µM). The MIC against Candida albicans, with Fusarium culmorum, with Fusarium verticillioides, in the assay with Fusarium solani, in the assay with Aspergillus ochraceus and in the assay on Trichoderma harzianum was 250 µg/mL (≈ 596 µM) throughout. Besides, the MIC against Penicillium chrysogenum stood at 250 µg/mL (≈ 596 µM); in the assay with Aspergillus parasiticus it was 250 µg/mL (≈ 596 µM); in the assay on Bacillus subtilis, 500 µg/mL (≈ 1190 µM); in the assay on Micrococcus luteus, 250 µg/mL (≈ 596 µM); against Pseudomonas aeruginosa, 250 µg/mL (≈ 596 µM); against Escherichia coli, 250 µg/mL (≈ 596 µM). For the same compound, the MIC in the assay on Listeria monocytogenes and in the assay with Staphylococcus aureus was 250 µg/mL (≈ 596 µM) in each case.

Regarding `Cc1nnc(SCC(=O)N/N=c2/scc(-c3ccc(C#N)cc3)n2-c2ccccc2)s1`, the IC50 in the assay on NIH3T3 was less than 3.9 µg/mL. Besides, the MIC in the assay with Candida albicans was found to be 250 µg/mL (≈ 538 µM); in the assay on Fusarium culmorum it was 250 µg/mL (≈ 538 µM); with Fusarium verticillioides, 250 µg/mL (≈ 538 µM); in the assay with Fusarium solani, 250 µg/mL (≈ 538 µM); in the assay with Aspergillus ochraceus it was 250 µg/mL (≈ 538 µM); against Trichoderma harzianum, 125 µg/mL (≈ 269 µM). Besides, the MIC against Penicillium chrysogenum, against Aspergillus parasiticus, against Bacillus subtilis, against Micrococcus luteus, against Pseudomonas aeruginosa and against Escherichia coli was 250 µg/mL (≈ 538 µM) each time. Also, the MIC against Listeria monocytogenes and in the assay with Staphylococcus aureus was 250 µg/mL (≈ 538 µM) each time.

In the case of `Cn1cnnc1SCC(=O)N/N=c1/scc(-c2ccc(Br)cc2)n1-c1ccccc1`, in the assay on NIH3T3, the IC50 was 58.3 µg/mL (≈ 116 µM). The MIC came to 250 µg/mL (≈ 499 µM) in the assay on Candida albicans; 250 µg/mL (≈ 499 µM) in the assay on Fusarium culmorum; 250 µg/mL (≈ 499 µM) in the assay on Fusarium verticillioides; 250 µg/mL (≈ 499 µM) with Fusarium solani; 250 µg/mL (≈ 499 µM) with Aspergillus ochraceus; 125 µg/mL (≈ 249 µM) in the assay with Trichoderma harzianum. Further, the MIC against Penicillium chrysogenum, in the assay on Aspergillus parasiticus, with Bacillus subtilis, against Micrococcus luteus, against Pseudomonas aeruginosa and in the assay with Escherichia coli was 250 µg/mL (≈ 499 µM) throughout. The MIC against Listeria monocytogenes and against Staphylococcus aureus was 250 µg/mL (≈ 499 µM) in each case.

In the assay on NIH3T3, `Cn1cnnc1SCC(=O)N/N=c1/scc(-c2ccc([N+](=O)[O-])cc2)n1-c1ccccc1` gave an IC50 of 133 µg/mL (≈ 285 µM). Further, the MIC with Candida albicans, against Fusarium culmorum, against Fusarium verticillioides, in the assay on Fusarium solani, in the assay with Aspergillus ochraceus and against Trichoderma harzianum was 250 µg/mL (≈ 535 µM) in each case. Also, the minimal inhibitory concentration (MIC) turned out to be 250 µg/mL (≈ 535 µM) with Penicillium chrysogenum; 250 µg/mL (≈ 535 µM) against Aspergillus parasiticus; 125 µg/mL (≈ 267 µM) with Bacillus subtilis; 125 µg/mL (≈ 267 µM) against Micrococcus luteus; 250 µg/mL (≈ 535 µM) in the assay with Pseudomonas aeruginosa; 250 µg/mL (≈ 535 µM) in the assay with Escherichia coli. Moreover, the MIC against Listeria monocytogenes and against Staphylococcus aureus was 250 µg/mL (≈ 535 µM) each time.

Compound `Cn1nnnc1SCC(=O)N/N=c1/scc(-c2ccc(Br)cc2)n1-c1ccccc1` showed an IC50 in the assay on NIH3T3 of 19.3 µg/mL (≈ 38.4 µM). The MIC against Candida albicans was 250 µg/mL (≈ 498 µM); in the assay with Fusarium culmorum, 125 µg/mL (≈ 249 µM); with Fusarium verticillioides, 250 µg/mL (≈ 498 µM); with Fusarium solani it was 250 µg/mL (≈ 498 µM); against Aspergillus ochraceus it was 250 µg/mL (≈ 498 µM); in the assay on Trichoderma harzianum, 125 µg/mL (≈ 249 µM). In addition, the MIC in the assay on Penicillium chrysogenum is 250 µg/mL (≈ 498 µM); against Aspergillus parasiticus it was 250 µg/mL (≈ 498 µM); against Bacillus subtilis, 250 µg/mL (≈ 498 µM); against Micrococcus luteus it was 125 µg/mL (≈ 249 µM); in the assay with Pseudomonas aeruginosa, 250 µg/mL (≈ 498 µM); in the assay with Escherichia coli, 250 µg/mL (≈ 498 µM). Further, the MIC against Listeria monocytogenes and against Staphylococcus aureus was 250 µg/mL (≈ 498 µM) each time.
